Data as given in a melting point compilation (Tetko et al.; mined from patent text by program, amines drawn as free bases though some values may be those of a salt).

SMILES	melting point
ClCCCCOc1ccc2ccccc2c1	112 °C
O=[N+]([O-])c1cc(Cl)c(CCN2CCN(c3nsc4ccccc34)CC2)cc1Cl	153 to 157 °C
N#Cc1ccc2nccn2c1	166 to 167 °C
Cn1cc(CCO)c2c3c(c(-c4ccccc4Cl)cc21)C(=O)NC3=O	225 to 229 °C
O=c1[nH]c2ccc(Cl)cc2c(-c2ccccc2)[n+]1[O-]	267 to 269 °C
C=CCSc1nc(O)ns1	84 °C
CCN(CC)c1ccc(-n2c(C(F)(F)F)nn(C)c2=S)cn1	96 to 98 °C
Cc1oc(-c2ccccc2)nc1COc1ccc(COc2ccc(O)cc2CC(=O)O)cc1	194 to 195 °C
CN(C)C(=O)CCO[C@H]1CC[C@H](N(C)S(=O)(=O)c2ccc(C(F)(F)F)cc2)CC1	88 °C
CCOC(=O)c1c(C)nc2ccn(-c3ccc(Cl)cc3)n2c1=O	175 to 177 °C
COc1cccc(CNC(=O)c2cc3ccccc3c(=O)[nH]2)c1	206 to 210 °C
CC(N)C(=O)NC(Cc1ccccc1)C(=O)NCC(=O)Oc1c(Cl)c(Cl)c(Cl)c(Cl)c1Cl (centres undefined)	180 to 183 °C
O=C(O)COc1cc2c(-c3ccc(Cl)cc3)csc2c(Cl)c1Cl	206 to 208 °C
C=CCN(C)c1nc(-c2ccc(OC)cc2)nc2sc(C#N)c(C)c12	126 to 128 °C
COC(=O)CCCNC(=O)/C=C/C=C/c1ccccc1	153 to 155 °C
O=C(O)C(=O)N1CCC(Oc2ccc(Cl)cc2)CC1	144 to 145 °C
CC(C)c1ccc(C(=O)C2CCc3ccccc3C2)c(C(C)C)c1OS(N)(=O)=O (centres undefined)	137 to 139 °C
CCS(=O)(=O)c1nc2c(cc1F)c(=O)c(C(=O)O)cn2C1CC1	240 to 242 °C
CCCc1c(C(C)=O)c2ccc(C(N)=O)cc2n1Cc1ccccc1Cl	208 to 211 °C
CCN(CC)CCOc1cccc2c1c1cccc(Cl)c1n2Cc1ccc(F)cc1	104 to 106 °C
CC(=O)Nc1c([N+](=O)[O-])cnn1-c1c(F)c(F)c(C(F)(F)F)c(F)c1F	136 to 138 °C
ON=C1c2ccccc2-c2c1c(-n1ccnc1)nc1ccc(Br)cc21	268 to 271 °C
C#CCOc1cc(-n2nnn(CCC)c2=O)c(Cl)cc1Cl	70 to 72 °C
CCCCCCCN(O)C(=O)N(C)C	30 to 31 °C
COC(=O)C1=C(C)NC(C)=C(c2nc(C)no2)C1c1cccc([N+](=O)[O-])c1 (centres undefined)	221 to 222 °C

SMILES	melting point
CCCCCCOc1ccc(CCCCCCCCC(=O)NO)cc1	94 to 96 °C
O=C1c2ccccc2C(=O)N1CCCn1cc(S(=O)(=O)c2ccccc2)c2ccccc21	205 to 206 °C
CCc1sc(N)nc1-c1cc(Br)no1	151 to 152 °C
COC(=O)c1ccc(/C=C/C(=O)O)s1	180 °C
C#CCOc1cc(Oc2ccc(F)cc2)ncn1	81.4 °C
CCc1nc2c(N)nc3cccnc3c2n1CCCCCC(=O)N1CCOCC1	163 to 165 °C
COC(=O)C(O)c1cc2c(cc1Cl)OCO2 (centres undefined)	66 to 68 °C
C=CCOc1cccc2oc(C=CC(=O)OCC)c(C)c12	79 to 80 °C
Cc1cc(C(=O)c2sc(Nc3ccc(N4CCN(C)CC4)cc3)nc2N)c(C)s1	205 to 206 °C
O=C1NCCc2[nH]c3ccccc3c21	212 to 215 °C
CCNc1nc(Cl)nc(Nc2ccc(OC)cc2)n1	174 to 176 °C
CP(C)(=O)C(CC(=O)O)C(=O)O (centres undefined)	174 to 177 °C
COc1ccc(S(=O)(=O)Nc2cccnc2Nc2ccc(OS(=O)(=O)c3ccc(OC)cc3)cc2)cc1	122 to 123 °C
CC(=O)OC(C)c1ccc(-c2ccc(OCc3ccccc3)cc2)cc1 (single isomer, unassigned; (+))	137 °C
CC(C)(C)OC(=O)N1CCN(c2c(F)cc(N3CC(CO)OC3=O)cc2F)CC1 (centres undefined)	164 to 166 °C
CCCC=Cc1c(C(C)C)nc(C(C)C)c(CO)c1-c1ccc(C)cc1	72 to 75 °C
COC(=O)C1CCC(n2ccn(-c3ccc4c(c3)CCC(C#N)C4)c2=O)CC1 (centres undefined)	116 to 118 °C
COc1ccc(-c2n[nH]cc2C(=O)N2CCOCC2)cc1OC	122 °C
N#CCn1cc(-c2ccccc2)c(=O)c(-c2ccccc2)c1	221 to 224 °C
NC(=O)c1nc(CCl)n(-c2ccc(Cl)cc2C(=O)c2ccccc2)n1	128 to 130 °C
COc1cc(OCCCCN2CCCN(CCCCOc3cc(OC)c(OC)c(OC)c3)CC2)cc(OC)c1OC	124 to 126 °C
CCCCCC1=C(CCCCC)CC(CNC(=O)Nc2c(C(C)C)cccc2C(C)C)SC1 (centres undefined)	65 to 67 °C
O=C1CCC(Cc2c[nH]c3ncccc23)N1 (centres undefined)	160 to 162 °C
O=C(Cl)c1c(Cl)cc([N+](=O)[O-])cc1Cl	63 to 65 °C
CCCc1cc2cc(O)ccc2c(Oc2ccc(/C=C/C(=O)O)cc2)c1-c1ccccc1	120 to 122 °C

SMILES	melting point
COC(=O)c1c(Cl)cc(Cl)cc1NC(=O)CSc1ccc(NCc2ccc(Cl)cc2)cc1	96 to 98 °C
COC(=O)c1nn(C2CCCCO2)cc1NC(=O)c1ccccn1 (centres undefined)	131 to 132 °C
COc1ccc(S(=O)(=O)C(CC=C(C)C)(Cc2ccc(OCCN3CCOCC3)cc2)C(=O)NO)cc1 (centres undefined)	92 °C
Cn1c(C(F)(F)F)cc2ccccc21	28 to 32 °C
CCOC(=O)CSc1ccc([N+](=O)[O-])cc1C1C(C(=O)OC)=C(C)N(C)C(C)=C1C(=O)OC	118 °C
COc1ccc2c(c1)Cc1c([nH]cnc1=O)N2	> 300 °C
OCCCCc1ccc(OCc2ccccc2)cc1	59 to 60 °C
Cc1oc(C(=O)NCc2ccc3c(c2)OCO3)c(C)c1-c1nc2ccc(C(=O)c3ccccc3)cc2[nH]1	122 to 125 °C
C=CC(=O)N1CC(O)CC1C(=O)OC (centres undefined)	77 to 78 °C
C=C(c1cc(Cl)ccc1N1CCCCC1)C(C(N)=O)c1ccc(C(=O)OCC)cc1 (centres undefined)	142 to 145 °C
O=C(O)COc1c(-c2ccccc2)c(=O)[nH]c2cc(Cl)ccc12	269 to 272 °C
O=[N+]([O-])c1ccccc1CN1CCC(c2cc(-c3ccc(Cl)cc3)[nH]n2)CC1	150 to 151 °C
CC(C)(NC(=O)c1nnc2ccc(NCCCN3CCC(OC(c4ccccc4)c4ccccc4)CC3)nn12)C(=O)O	191 to 193 °C
COc1ccccc1-c1nc(N)ncc1-c1ccc(=O)[nH]n1	273 °C
CCOC(=O)C1=CC(c2cccc(C(F)(F)F)c2)=NN(C(=O)OCC)C1N1CCOCC1 (centres undefined)	128 to 129 °C
CCc1cccnc1NC(=O)OC(C)(C)C	101 to 102 °C
CC(=O)N1CCCc2c1n(-c1ccccc1)c1c(c2=O)CCc2ccccc2-1	178 to 182 °C
O=Cc1ccc(-c2ccccc2-c2nnn(C(c3ccccc3)(c3ccccc3)c3ccccc3)n2)cc1	147 to 149 °C
CCOC(=O)c1nc(N)sc1C(C)=O	162 to 164 °C
CCCCCCCCCc1ccc(-c2nc(C)c(C(C)=NNC(=N)N)s2)cc1	203 to 206 °C
Cc1cc(Oc2c(Cl)cc(C(F)(F)F)cc2Cl)n[nH]1	153 to 155 °C
CNCC1Cc2cc(F)cc(-c3c(Cl)cccc3Cl)c2O1 (centres undefined)	140 to 142 °C
Cc1cc(N=CN(C)C)c(C)cc1Cc1cccc(C(F)(F)F)c1	75 to 77 °C
CC(C)c1cc(C(C)(C)C)cc(Br)c1OCc1ccccc1	47 to 49 °C
CS(=O)(=O)c1ccc(-c2[nH]nc(C(=O)CCCO)c2-c2ccc(C#N)cc2)cc1	169 to 171 °C

SMILES	melting point
CC(C)(C)OC(=O)N1CCN(CC(O)Cn2c3ccc(Br)cc3c3cc(Br)ccc32)CC1 (centres undefined)	90 to 95 °C
NC(=O)N(O)CCNC(=O)COc1cccc(Oc2ccccc2)c1	153 to 155 °C
Cc1nc2ccccc2n1Cc1ccc(C(=O)N(C)C2CCNCC2)cc1	196 to 198 °C
Cc1nc2c(N)nc3c(c2n1CC(C)(C)OCCS(C)(=O)=O)CCCC3	226 to 229 °C
O=C(Nc1cccc(C(F)(F)F)c1)OCC1(COC(=O)Nc2cccc(C(F)(F)F)c2)CSc2ccccc2C1=O	58 to 63 °C
CC(C)n1nc(-c2nc(C#N)c(C#N)nc2-c2ccccc2)ccc1=O	201 to 202 °C
O=C(O)c1cc(Cl)nn1-c1ncccc1Cl	198 to 199 °C
CN(C)C(N)=Nc1cc(Cl)ccc1N1CCOCC1	135 to 138 °C
NCc1cccc2c1CN(c1nc3c(cc1F)c(=O)c(C(=O)O)cn3C1CC1)C2	> 300 °C
CN(c1ccccc1)c1ncnc2cc(C(F)(F)F)ccc12	135 to 137 °C
Cc1cccc(C(=O)Nc2cn(C3CCCCO3)nc2C(=O)NCC(F)(F)F)n1 (centres undefined)	184 to 185 °C
CC(C)(C)OC(=O)N[C@@H]1CCCC[C@H]1OCC(=O)O (relative stereo)	205 to 207 °C
COc1ccc(C=CN(C)C)c([N+](=O)[O-])c1[N+](=O)[O-]	100 to 131 °C
Nc1nc(-c2ccccn2)cc2ccccc12	152 to 153 °C
CCCC(=O)c1cnc2c(OCCCN(C)C)cccc2c1Nc1ccc(F)cc1C	99 to 100 °C
O=C1OC(=O)c2c3ccccc3cc3cccc1c23	289 to 290 °C
CCN1C(=O)C(C)(C)C(=O)N(C)c2cc(CN(CCn3c(=O)ccc4ccccc43)Cc3cccnc3C)ccc21	149 to 150 °C
CCOP(=O)(OCC)c1c(C)c2c(c(C)c1-c1c(OCc3ccccc3)ccc3ccccc13)CN(S(=O)(=O)c1ccc(C)cc1)C2	69.8 to 71.7 °C
N=C(NO)c1ccc(-c2cccc(-c3nc4cc(C(=N)NO)ccc4[nH]3)c2O)cc1	322 to 325 °C
Cc1nc(-c2nn(-c3ccccc3)c(=O)cc2Oc2ccccc2)n[nH]1	245 to 247 °C
COc1ccc(C(CC(=O)NCc2ccccc2)N2C(=O)c3ccccc3C2=O)cc1OC (centres undefined)	208 to 210 °C
c1ccc(C2CC(n3cncn3)c3ccccc3N2)cc1 (centres undefined)	162 to 164 °C
CC1=C(C(=O)OCCN(C)C)C(c2cccc([N+](=O)[O-])c2)C(C(=O)OCC2CC2)=C(C)N1 (centres undefined)	125 to 126 °C
CCOC(=O)c1ccc(N=CN(C)c2ccc(C(=O)OCC)cc2)cc1	89 to 91 °C
